According to the supplement of paper PMC10307832:

Legend:
Test in all cases: relative viability (nuclei count vs DMSO), 5 days (fraction); higher = more cells survive
[1] = compound: CC(C)CCN1c2nc(Nc3cc(F)c(O)c(F)c3)ncc2N(C)C(=O)C1C [BI-D1870] + Nc1nc2[nH]cc(CCc3ccc(C(=O)N[C@@H](CCC(=O)O)C(=O)O)cc3)c2c(=O)[nH]1 [Pemetrexed] (partner 0.2 µM)
In short: (§1)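 After 5 days of treatment, lung cancer cells in 1536-well plates were fixed and stained in a single step (final 0.05% Triton X-100, 1% formaldehyde, 1 ug/ml Hoechst) and their nuclei counted on 4× images. Treatment had been applied by pin tool the day after seeding as one drug alone or as a fixed anchor-drug dose with five library-drug doses (not always all listed) in √10 steps. Relative viability is the nuclei count of treated wells divided by that of vehicle wells, and values are medians of duplicate plates.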

[2] = compound: O=c1ncccn1[C@@H]1O[C@H](CO)[C@@H](O)[C@H]1O [Zebularine] + N=C(N)NC(=N)NCCc1ccccc1 [Phenformin] (partner 250 µM)
In short: as §1

[3] = compound: CC(C)CCN1c2nc(Nc3cc(F)c(O)c(F)c3)ncc2N(C)C(=O)C1C [BI-D1870] + Cc1cc(Nc2cc(N3CCN(C)CC3)nc(Sc3ccc(NC(=O)C4CC4)cc3)n2)n[nH]1 [Tozasertib] (partner 0.1 µM)
In short: as §1

[4] = compound: CC(C)CCN1c2nc(Nc3cc(F)c(O)c(F)c3)ncc2N(C)C(=O)C1C [BI-D1870] + NC(=O)Nc1cc(-c2cccc(F)c2)sc1C(=O)N[C@H]1CCCNC1 [AZD7762] (partner 0.2 µM)
In short: as §1

Cell Line | relative viability ([1]; first compound 0.04 µM) | relative viability ([1]; first compound 0.1265 µM) | relative viability ([1]; first compound 0.4 µM) | relative viability ([1]; first compound 1.265 µM) | relative viability ([1]; first compound 4 µM) | relative viability ([2]; first compound 1 µM) | relative viability ([2]; first compound 3.162 µM) | relative viability ([2]; first compound 10 µM) | relative viability ([2]; first compound 31.62 µM) | relative viability ([2]; first compound 100 µM) | relative viability ([3]; first compound 0.04 µM) | relative viability ([3]; first compound 0.1265 µM) | relative viability ([3]; first compound 0.4 µM) | relative viability ([3]; first compound 1.265 µM) | relative viability ([3]; first compound 4 µM) | relative viability ([4]; first compound 0.04 µM) | relative viability ([4]; first compound 0.1265 µM) | relative viability ([4]; first compound 1.265 µM) | relative viability ([4]; first compound 4 µM) | relative viability ([4]; first compound 0.4 µM)
NCI-H1563 | 0.869 | 0.793 | 0.776 | 0.776 | 0.841 | 0.684 | 0.674 | 0.647 | 0.702 | 0.661 | – | – | – | – | – | – | – | – | – | –
NCI-H1623 | – | – | – | – | – | 0.624 | 0.531 | 0.479 | 0.535 | 0.437 | 0.404 | 0.412 | 0.478 | 0.452 | 0.376 | – | – | – | – | –
NCI-H1648 | 0.619 | 0.588 | – | 0.802 | 0.661 | – | – | – | – | – | 0.479 | 0.48 | 0.371 | 0.566 | 0.412 | 0.67 | 0.677 | 0.646 | 0.57 | –
NCI-H1650 | 0.405 | 0.358 | 0.338 | 0.427 | 0.373 | 0.493 | 0.476 | 0.307 | 0.492 | 0.353 | 0.53 | 0.347 | 0.401 | 0.323 | 0.252 | – | – | – | – | –
NCI-H1703 | – | – | – | – | – | – | – | – | – | – | – | – | – | – | – | 0.143 | – | 0.142 | 0.116 | 0.122
NCI-H1792 | 1.12 | 0.795 | 0.706 | 1.11 | 0.634 | 0.44 | 0.281 | 0.119 | 0.258 | 0.189 | – | – | – | – | – | 0.728 | 0.599 | 0.72 | 0.527 | 0.72
NCI-H2009 | 1.06 | 1.11 | 1.1 | 0.993 | 0.877 | 0.515 | 0.483 | 0.425 | 0.435 | 0.336 | 0.826 | 0.723 | 0.639 | 0.516 | 0.321 | – | – | – | – | –
NCI-H2023 | 0.24 | 0.255 | 0.288 | 0.255 | 0.149 | 0.475 | 0.443 | 0.213 | 0.23 | 0.208 | 0.308 | 0.265 | 0.253 | 0.227 | 0.164 | – | – | – | – | –
NCI-H2228 | 0.33 | 0.345 | 0.349 | 0.353 | 0.195 | 0.313 | 0.313 | 0.182 | 0.323 | 0.221 | 0.226 | 0.205 | 0.163 | 0.164 | 0.134 | – | – | – | – | –
SK-LU-1 | 1.1 | 0.918 | 1.01 | 0.868 | 0.366 | 0.633 | 0.552 | 0.313 | 0.493 | 0.33 | 0.365 | 0.276 | 0.262 | 0.339 | 0.204 | – | – | – | – | –
SK-MES-1 | 0.992 | 0.874 | 0.895 | 0.716 | 0.622 | 0.755 | 0.693 | 0.45 | 0.362 | 0.226 | 1.06 | 0.82 | 0.766 | 0.607 | 0.22 | – | – | – | – | –
SW 1573 | 0.855 | 0.775 | 0.826 | 0.845 | 0.35 | 0.379 | 0.404 | – | 0.406 | 0.227 | 0.175 | 0.16 | 0.159 | 0.176 | 0.175 | – | – | – | – | –
